Laboratory results as given in patent publication US5786372A, “Heteroaryl compounds used as pharmaceuticals” (SmithKline Beecham p.l.c., priority 1992, dated 1998).
Where a name gives a salt, the structure may show the parent alone.

Molecular target: T1, 5-HT4 receptor (Cavia porcellus, UniProt O70528)
T1 construct: Longitudinal muscle-myenteric plexus preparations, approximately 3 cm long, are obtained from the distal colon region; from tissue; host or cells: guinea-pig distal colon, longitudinal muscle-myenteric plexus preparation
Test: Guinea pig colon 5-HT4 receptor antagonist activity (longitudinal muscle-myenteric plexus, 5-HT evoked contraction)
Conditions: -log concentration of antagonist which reduces the 5-HT evoked contraction by 50%; guinea-pig distal colon; methiothepin 10^-7 M and granisetron 10^-6 M present
Description: 5-HT4 RECEPTOR ANTAGONIST ACTIVITY
Male guinea-pigs, weighing 250-400 g are used. Longitudinal muscle-myenteric plexus preparations, approximately 3 cm long, are obtained from the distal colon region. These are suspended under a 0.5 g load in isolated tissue baths containing Krebs solution bubbled with 5% CO2 in O2 and maintained at 37° C. In all experiments, the Krebs solution also contains methiothepin 10^-7 M and granisetron 10^-6 M to block effects at 5-HT1, 5-HT2 and 5-HT3 receptors.
After construction of a simple concentration-response curve with 5-HT, using 30 s contact times and a 15 min dosing cycle, a concentration of 5-HT is selected so as to obtain a contraction of the muscle approximately 40-70% maximum (10^-9 M approx). The tissue is then alternately dosed every 15 min with this concentration of 5-HT and then with an approximately equi-effective concentration of the nicotine receptor stimulant, dimethylphenylpiperazinium (DMPP). After obtaining consistent responses to both 5-HT and DMPP, increasing concentrations of a putative 5-HT4 receptor antagonist are then added to the bathing solution. The effects of this compound are then determined as a percentage reduction of the contractions evoked by 5-HT or by DMPP. […] A compound which reduces the response to 5-HT but not to DMPP is believed to act as a 5-HT4 receptor antagonist.

T1 sequence (O70528 whole entry): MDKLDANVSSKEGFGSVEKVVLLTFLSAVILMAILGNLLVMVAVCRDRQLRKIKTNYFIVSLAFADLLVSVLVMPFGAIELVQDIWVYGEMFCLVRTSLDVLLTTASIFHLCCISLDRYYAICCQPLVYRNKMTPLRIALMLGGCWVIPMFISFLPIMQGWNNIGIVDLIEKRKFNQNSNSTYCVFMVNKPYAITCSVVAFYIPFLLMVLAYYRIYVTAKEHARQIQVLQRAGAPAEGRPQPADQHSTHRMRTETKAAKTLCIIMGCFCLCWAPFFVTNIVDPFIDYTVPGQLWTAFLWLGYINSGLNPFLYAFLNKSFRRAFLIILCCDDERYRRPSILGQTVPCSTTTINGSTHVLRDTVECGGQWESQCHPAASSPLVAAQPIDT

IC50: 0.0631 nM
SMILES: Nc1c(Cl)cc(C(=O)OCC2CCN(CCCO)CC2)c2c1OCCO2 [Example E1, [1-(3Hydroxypropyl)-4-piperidinyl]methyl 8-amino-7-chloro-1,4-benzodioxan-5-carboxylate hydrochloride]
